Laboratory results: patent US9981928B2, “Aryl sulfide derivatives and aryl sulfoxide derivatives as acaricides and insecticides” (BAYER CROPSCIENCE AKTIENGESELLSCHAFT, priority 2013, dated 2018)
Where two headings read alike, the source gives them in different places.

How the values were obtained:
[1] = tested on: southern root-knot nematode (Meloidogyne incognita); test: Meloidogyne incognita test (MELGIN); assay type: in vivo; conditions: lettuce in sand; application rate 20 ppm; after 14 days
Method: Meloidogvne incognita test (MELGIN)
Solvent: 125.0 parts by weight of acetone
To produce a suitable preparation of active compound, 1 part by weight of active compound is mixed with the stated amount of solvent and the concentrate is diluted with water to the desired concentration.
Vessels are filled with sand, active compound solution, an egg/larvae suspension of the southern root-knot nematode (Meloidogyne incognita) and lettuce seeds. The lettuce seeds germinate and the plants develop. The galls develop on the roots.
After 14 days, the nematicidal efficacy in % is determined by the formation of galls. 100% means that no galls were found; 0% means that the number of galls on the treated plants corresponds to the untreated control.

[2] = tested on: greenhouse red spider mite (Tetranychus urticae); test: Tetranychus urticae spray test, OP-resistant (TETRUR), bean leaf disks; assay type: in vivo; conditions: bean leaf disks, after 6 days; for pest or weed control at 500 g/ha: Tetranychus urticae, foliar, 144 h, read-out: efficacy in %
Method in brief: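 Efficacy (% mites killed) read 6 days after spraying infested Phaseolus vulgaris leaf disks. Compound preparation: acetone and dimethylformamide solvent, made up in water with 1000 ppm alkylaryl polyglycol ether emulsifier; OP-resistant mite strain, all life stages.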

[3] = log P determination by HPLC on reversed-phase columns (C 18), analogously to OECD Guideline 117; assay type: physicochemical; conditions: for logP (HCOOH): LC-MS in the acidic range, pH 2.7, 0.1% aqueous formic acid / acetonitrile; for logP (HCOOH) / logP (neutral): HPLC reversed-phase C 18; for logP (neutral): LC-MS in the neutral range, pH 7.8, 0.001 molar aqueous ammonium hydrogencarbonate / acetonitrile; for chromatographic logP: reversed-phase C18 HPLC column
Method in brief: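 Reversed-phase C18 HPLC per OECD 117 with LC-MS detection and a linear 10→95% acetonitrile gradient. Acidic log P run at pH 2.7 with 0.1% formic acid in both eluents. Neutral log P run at pH 7.8 with 0.001 M aqueous ammonium hydrogencarbonate.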

[4] = tested on: cattle ticks (Boophilus microplus); test: Boophilus microplus injection test (BOOPMI inj); assay type: in vivo; conditions: injection into the abdomen; application rate 20 μg/animal; assessed after 7 days
Method: Boophilus microplus—Injection Test (BOOPMI inj)
Solvent: dimethyl sulfoxide
To produce a suitable preparation of active compound, 10 mg of active compound are mixed with 0.5 ml of solvent and the concentrate is diluted with solvent to the desired concentration.
1 μl of the active compound solution is injected into the abdomen of 5 engorged adult female cattle ticks (Boophilus microplus). The animals are transferred into dishes and kept in a climate-controlled room.
Efficacy is assessed after 7 days by laying of fertile eggs. Eggs which are not visibly fertile are stored in a climate-controlled cabinet until the larvae hatch after about 42 days. An efficacy of 100% means that none of the ticks has laid any fertile eggs; 0% means that all the eggs are fertile.

[5] = tested on: larvae of the mustard beetle (Phaedon cochleariae); test: Phaedon cochleariae spray test (PHAECO); assay type: in vivo; conditions: Chinese cabbage leaf disks; application rate 500 g/ha; after 7 days
Method: Phaedon cochleariae—Spray Test (PHAECO)
Solvent: 78.0 parts by weight of acetone
• 1.5 parts by weight of dimethylformamide Emulsifier: alkylaryl polyglycol ether
To produce a suitable preparation of active compound, 1 part by weight of active compound is dissolved using the stated parts by weight of solvent and made up with water containing an emulsifier concentration of 1000 ppm until the desired concentration is attained. To produce further test concentrations, the preparation is diluted with emulsifier-containing water.
After 7 days, the efficacy in % is determined. 100% means that all the beetle larvae have been killed; 0% means that no beetle larvae have been killed.

[6] = acidic range, pH 2.7, 0.1% aqueous formic acid and acetonitrile, read-out: log P[a] / log P(HCOOH)
[7] = neutral range, pH 7.8, 0.001 molar aqueous ammonium hydrogencarbonate and acetonitrile, read-out: log P[b] / log P(neutral)

| Compound | nematicidal efficacy in % (formation of galls) [1] | efficacy in % ([2]; application rate 100 g/ha) | logP (HCOOH) [3] | logP (neutral) [3] | efficacy in % ([2]; application rate 500 g/ha) | efficacy (laying of fertile eggs) [4] | pest or weed control at 500 g/ha ([2]; application rate 500 g/ha) | chromatographic logP [3, 6] | chromatographic logP [3, 7] | efficacy in % [5] |
| --- | --- | --- | --- | --- | --- | --- | --- | --- | --- | --- |
| C=CCn1c(=O)n(C)n(-c2cc(SCC(F)(F)F)c(C)cc2F)c1=O [Example 81] | 90% | 100% | 3.05 | 3.01 | – | – | – | – | – | – |
| Cc1ccc(-n2c(=O)n(C3CC3)c(=O)n2C)cc1SCC(F)(F)F [Example 36] | 100% | – | 2.89 | 2.87 | 100% | – | – | – | – | – |
| C=CCn1c(=O)n(C2CC2)c(=O)n1-c1ccc(C)c(SCC(F)(F)F)c1 [Example 48] | – | – | 3.37 | 3.31 | 100% | 80% | – | – | – | – |
| COc1ccc(-n2c(=O)n(C3CC3)c(=O)n2C)cc1SCC(F)(F)F [Example 42] | 90% | – | 2.51 | 2.46 | 100% | – | – | – | – | – |
| Cc1ccc(-n2c(=O)n(C3CC3)c(=O)n2C)cc1[S+]([O-])CC(F)(F)F (stereo not drawn) [Example 37] | 100% | – | 1.89 | 1.87 | 100% | 100% | – | – | – | – |
| CCn1c(=O)n(C)n(-c2cc(SCC(F)(F)F)c(C)cc2F)c1=O [Example 83] | 100% | – | 2.92 | 2.88 | 100% | – | – | – | – | – |
| Cc1cc(F)c(N2CC(=O)N(C)C2=O)cc1[S+]([O-])CC(F)(F)F (stereo not drawn) [Example 208] | 90% | – | 1.68 | – | 100% | 100% | – | – | – | – |
| Cc1cc(C)c([S+]([O-])CC(F)(F)F)cc1-n1c(=O)n(C2CC2)c(=O)n1C (stereo not drawn) [Example 47] | – | – | 1.98 | 1.93 | 90% | 100% | – | – | – | – |
| CCn1c(=O)n(C)n(-c2cc([S+]([O-])CC(F)(F)F)c(C)cc2F)c1=O (stereo not drawn) [Example 74] | 90% | 90% | 1.93 | 1.91 | – | – | – | – | – | – |
| Cc1cc(F)c(N2CCOC2=O)cc1SCC(F)(F)F [Example 104, 3-[2-Fluoro-4-methyl-5-(2,2,2-trifluoroethylsulfanyl)phenyl]oxazolidin-2-one] | – | – | – | – | – | 100% | 100% | 2.66 | – | – |
| Cc1cc(F)c(N2C(=O)C(C)(C)C(=O)N2C)cc1[S+]([O-])CC(F)(F)F (stereo not drawn) [Example 177, 1-{2-Fluoro-4-methyl-5-[(2,2,2-trifluoroethyl)sulfinyl]phenyl}-2,4,4-trimethylpyrazolidine-3,5-dione] | 90% | – | – | – | – | – | 90% | 1.89 | 1.85 | – |
| Cc1cc(F)c(N2C(=O)C3(CCC3)C(=O)N2C)cc1SCC(F)(F)F [Example 179] | 90% | – | 3.00 | 2.96 | 100% | – | – | – | – | – |
| Cc1cc(F)c(-n2c(=O)n(C3CC3)c(=O)n2C)cc1[S+]([O-])CC(F)(F)F (stereo not drawn) [Example 34] | 90% | – | 1.91 | 1.88 | 100% | 100% | – | – | – | – |
| Cc1ccc(-n2c(=O)n(C)c(=O)n2Cc2ccccc2Cl)cc1SCC(F)(F)F [Example 60] | – | – | 3.80 | 3.75 | – | – | – | – | – | 83% |
| Cn1c(=O)n(C2CC2)c(=O)n1-c1ccc(C(F)(F)F)c([S+]([O-])CC(F)(F)F)c1 (stereo not drawn) [Example 54] | 90% | – | 2.63 | 2.58 | 100% | 100% | – | – | – | – |
| CCn1c(=O)n(C2CC2)c(=O)n1-c1cc(SCC(F)(F)F)c(C)cc1F [Example 127] | 90% | – | 3.19 | 3.17 | 100% | – | – | – | – | – |
| Cc1cc(F)c(N2C(=O)CSC2=NCC(C)C)cc1SCC(F)(F)F [Example 115] | – | – | 4.33 | 4.31 | 100% | 100% | – | – | – | – |
| Cn1c(=O)n(C2CC2)c(=O)n1-c1cc([S+]([O-])CC(F)(F)F)c(Cl)cc1F (stereo not drawn) [Example 38] | 100% | – | 2.18 | 2.16 | 100% | – | – | – | – | – |
| Cc1cc(F)c(N2C(=O)CSC2=NCC(F)(F)F)cc1[S+]([O-])CC(F)(F)F (stereo not drawn) [Example 13, 3-{2-Fluoro-4-methyl-5-[(2,2,2-trifluoroethyl)sulfinyl]phenyl}-2-[(2,2,2-trifluoroethyl)imino]-1,3-thiazolidin-4-one] | 90% | – | – | – | – | 100% | 90% | 2.7 | 2.64 | – |
| COc1ccc(-n2c(=O)n(C3CC3)c(=O)n2C)cc1[S+]([O-])CC(F)(F)F (stereo not drawn) [Example 41] | 90% | – | 1.77 | 1.75 | 90% | – | – | – | – | – |
| Cc1ccc(-n2c(=O)n(C)c(=O)n2C)cc1SCC(F)(F)F [Example 20, 1,4-Dimethyl-2-{4-methyl-3-[(2,2,2-trifluoroethyl)sulfanyl]phenyl}-1,2,4-triazolidine-3,5-dione] | 90% | – | – | – | – | – | 100% | 2.59 | 2.58 | – |
| Cc1cc(F)c(N2CC(=O)N(C3CC3)C2=O)cc1[S+]([O-])CC(F)(F)F (stereo not drawn) [Example 209] | 90% | – | 1.92 | – | 100% | 100% | – | – | – | – |
| Cc1ccc(-n2c(=O)n(C)c(=O)n2Cc2ccccc2)cc1SCC(F)(F)F [Example 57] | – | – | 3.62 | 3.56 | – | – | – | – | – | 100% |
| Cc1cc(F)c(N2CC(=O)N(C3CC3)C2=O)cc1SCC(F)(F)F [Example 210] | 90% | – | 2.91 | – | 100% | 100% | – | – | – | – |
| Cc1cc(F)c(-n2c(=O)n(C3CC3)c(=S)n2C)cc1SCC(F)(F)F [Example 181, 4-Cyclopropyl-2-{2-fluoro-4-methyl-5-[(2,2,2-trifluoroethyl)sulfanyl]phenyl}-1-methyl-5-thioxo-1,2,4-triazolidin-3-one] | 90% | – | – | – | – | – | 90% | 3.44 | 3.39 | – |
| Cn1c(=O)n(C)n(-c2cc(SCC(F)(F)F)c(Cl)cc2F)c1=O [Example 30] | 90% | – | 2.71 | 2.67 | 100% | – | – | – | – | – |
| Cc1ccc(-n2c(=O)n(C)c(=O)n2-c2ccc(C)c([S+]([O-])CC(F)(F)F)c2)cc1SCC(F)(F)F (stereo not drawn) [Example 84] | – | – | 3.46 | 3.38 | – | – | – | – | – | 100% |
| Cc1cc(F)c(-n2c(=O)n(C3CC3)c(=O)n2C)cc1SCC(F)(F)F [Example 35] | 100% | – | 2.83 | 2.81 | 100% | 100% | – | – | – | – |
| Cn1c(=O)n(C)n(-c2cc([S+]([O-])CC(F)(F)F)c(Cl)cc2F)c1=O (stereo not drawn) [Example 29] | 90% | – | 1.93 | 1.91 | 90% | – | – | – | – | – |
